Experimental data reported in ChEMBL document CHEMBL5143647, “Design, synthesis and biological evaluation of novel pyridine derivatives as gut-selective NaPi2b inhibitors” (Bioorg Med Chem Lett, 2022).
≈ marks a conversion by molar mass, not a printed value. Blank lines part the entries; values can stand above or below the compound they belong to. Calls of active or inactive are those of the source. No cut-off for these calls is given here.

Columns and labels:
[1] = Oral bioavailability in Sprague-Dawley rat at 11.9 mg/kg measured for 24 hrs by liquid chromatography-tandem mass spectrometry; format: ADME, organism-based; details: in vivo
[2] = molecular target: T1, Sodium-dependent phosphate transport protein 2B (Homo sapiens, UniProt O95436); assay: Inhibition of human NaPi2b stably expressed in CHO-K1 cells assessed as reduction in H2[33P]O4 uptake incubated for 30 mins by liquid scintillation counting method; format: cell-based
T1 sequence (O95436 whole entry): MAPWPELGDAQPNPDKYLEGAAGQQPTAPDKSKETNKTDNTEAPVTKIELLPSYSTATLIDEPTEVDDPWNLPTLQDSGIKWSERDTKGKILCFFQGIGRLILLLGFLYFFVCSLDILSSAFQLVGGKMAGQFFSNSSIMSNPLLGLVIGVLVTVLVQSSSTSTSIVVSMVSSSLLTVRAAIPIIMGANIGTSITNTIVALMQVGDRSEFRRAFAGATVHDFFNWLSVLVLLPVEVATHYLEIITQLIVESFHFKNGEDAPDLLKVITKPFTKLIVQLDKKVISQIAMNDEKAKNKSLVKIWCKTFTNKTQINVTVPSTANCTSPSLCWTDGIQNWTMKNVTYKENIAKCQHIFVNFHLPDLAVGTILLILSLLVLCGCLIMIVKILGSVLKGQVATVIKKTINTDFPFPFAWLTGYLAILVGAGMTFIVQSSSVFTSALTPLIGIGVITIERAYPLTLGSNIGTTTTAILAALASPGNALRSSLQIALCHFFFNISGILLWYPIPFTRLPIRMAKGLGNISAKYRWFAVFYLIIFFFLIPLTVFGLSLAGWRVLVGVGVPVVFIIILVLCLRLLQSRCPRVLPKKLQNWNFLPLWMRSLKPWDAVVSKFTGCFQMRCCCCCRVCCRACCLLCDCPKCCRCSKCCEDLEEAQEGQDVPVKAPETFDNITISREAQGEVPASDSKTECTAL

[3] = molecular target: T2, Sodium-dependent phosphate transport protein 2B (Homo sapiens) (UniProt O95436); assay: Inhibition of human NaPi2b at 1 uM relative to control
T2 sequence (whole entry): T1 sequence (O95436 whole entry)

[4] = Solubility in FeSSIF at pH 4.9 incubated for 25 degC for 2 hrs further incubated water bath at 35 degC for 22 hrs by HPLC analysis; format: physicochemical
[5] = Oral bioavailability in Sprague-Dawley rat at 10 mg/kg measured for 24 hrs by liquid chromatography-tandem mass spectrometry relative to control; format: ADME, organism-based; details: in vivo
Rattus norvegicus = assay: In vivo inhibition of NaPi2b in Sprague-Dawley rat assessed as reduction in phosphate absorption at 10 mg/kg, po after 5 mins followed by NaH2PO4 containing 32P-phosphate solution treatment and measured after 15 to 30 mins by liquid scintillation counting method; format: functional, organism-based; details: dose […], time 35.0 min
[6] = Drug excretion in Sprague-Dawley rat feces at 10 mg/kg, po measured for 24 hrs by liquid chromatography-tandem mass spectrometry relative to control; format: ADME, organism-based; details: faeces, read-out: Drug excretion
[7] = Solubility in FaSSIF at pH 6.6 incubated for 25 degC for 2 hrs further incubated water bath at 35 degC for 22 hrs by HPLC analysis; format: physicochemical

Compound: CCN([C@H]1CC[C@H](C(=O)O)CC1)S(=O)(=O)c1cccc(C(=O)Nc2ccc(N3CCCCC3)nc2C(=O)Nc2ccc(CCc3ccc(C(=O)NS(=O)(=O)NC)cc3)cc2)c1
- bioavailability [1]: 10.4%

Compound: CCC(CC)N(CCN(C)C(=O)CCC(=O)O)Cc1cccc(C(=O)Nc2ccc(N3CCCCC3)nc2C(=O)Nc2ccc(Oc3ccc(C(=O)O)cn3)cc2)c1
- IC50 [2]: 715 nM

Compound: CCN([C@H]1CC[C@H](C(=O)NCCOCCOCCOCCO)CC1)S(=O)(=O)c1cccc(C(=O)Nc2ccc(N3CCCCC3)nc2C(=O)Nc2ccc(CCc3ccc(C(=O)O)cc3)cc2)c1
- solubility at 24 h [4]: 15.9 µg/mL (≈ 16.6 µM)
- bioavailability [5]: 2.7%
- inhibition (Rattus norvegicus): Active
- dose excreted at 24 h [6]: 99.1%
- solubility at 24 h [7]: 20.5 µg/mL (≈ 21.4 µM)

Continued, values first:

- IC50 [2]: 205 nM
Compound: CCC(CC)N(CCN(C)C(=O)CCC(=O)O)Cc1cccc(C(=O)Nc2ccc(N3CCOCC3)nc2C(=O)Nc2ccc(CCc3ccc(C(=O)O)cc3)cc2)c1

- inhibition [3]: 87%
Compound: CCC(CC)N(CCN(C)C(=O)CCC(=O)O)Cc1cccc(C(=O)Nc2[nH]c3c(c2C(=O)Nc2ccc(CCc4ccc(C(=O)O)cc4)cc2)CCCC3)c1

- IC50 [2]: 162 nM
Compound: CCC(CC)N(CCN(C)C(=O)CCC(=O)O)Cc1cccc(C(=O)Nc2ccc(N3CCCCC3)nc2C(=O)Nc2ccc(Oc3ccc(C(=O)O)cc3)cc2)c1
